Data: US20220087987A1, “A METHOD FOR TREATING SWI/SNF COMPLEX-DEFICIENT CANCERS COMPRISING GLUTATHIONE (GSH) METABOLIC PATHWAY INHIBITOR” (National Cancer Center, priority 2018, published 2022)

Columns and labels:
Format in all cases: cell-based, human
[1] = system: p53, p21; experiment: Immunoblot for p53 and p21; settings: ARID1A-WT and ARID1A-KO HCT116; 50 μM PRIMA-1, 50 μM APR-246, 10 μM Nutlin3a, 16 hrs
Procedure: The soluble fractions of whole-cell lysates were mixed with SDS sample buffer. […] The soluble fractions were mixed with SDS sample buffer. Tumor samples derived from xenografts were weighed and washed with PBS. […] The homogenized tumor samples were diluted in an additional 450 μl of NETN420 buffer, incubated for 30 min on ice, and centrifuged at 4° C. for 10 min at 15,000 rpm. The soluble fractions of whole-cell lysates were mixed with SDS sample buffer. Proteins were separated by SDS-PAGE, transferred to PVDF membranes, and immunoblotted with the indicated antibodies. β-actin was used as a loading control. Membranes were blocked overnight at 4° C. or for 1 hr at 25° C. with PVDF Blocking Reagent for Can Get Signal (TOYOBO) and then probed with Can Get Signal Solution 1 (TOYOBO) containing primary antibodies. After washing with TBS containing 0.1% Tween 20, the membranes were incubated with TBS containing 0.1% Tween 20, 1% BSA, and horseradish peroxidase-conjugated anti-mouse or anti-rabbit secondary antibodies, and visualized using Western Lightning ECL Pro (Perkin Elmer). Chemiluminescence signals were measured using LAS-3000 Imaging System (Fujifilm). Signal intensities were measured using Multi Gauge software.

[2] = system: ROS; experiment: Detection of ROS in cells (ROS-Glo)
Procedure: GSH, ROS and apoptosis were detected using the GSH/GSSG-Glo Assay (Promega) and/or the GSH-Glo Assay (Promega), the ROS-Glo Assay (Promega), and the Caspase-Glo 3/7 Assay, respectively. To measure levels of GSH, ROS and apoptosis after drug treatment, cells were trypsinized, counted, reseeded at the specified density in 96-well plates and exposed to the indicated concentrations of drugs. After 16-48 hrs, luminescence was measured using an Envision Multi-label plate reader (PerkinElmer). To measure levels of GSH and ROS after siRNA-mediated knockdown, cell lines were transfected with siRNAs (25 nM) using Lipofectamine RNAiMAX. After 48 hrs, cells were trypsinized and transfected repeatedly with siRNAs (25 nM) using Lipofectamine RNAiMAX. Cells were trypsinized after a further 48 hrs, counted, and reseeded at the specified density in 96-well plates. After 72-120 hrs, luminescence was measured using an Envision Multi-label plate reader (PerkinElmer). Cell viability was also measured using the CellTiter-Glo Luminescent Cell Viability Assay (Promega). Caspase-3/7, GSH, and ROS levels were normalized against cell viability. The GSH/GSSG ratio was calculated as the GSH-GSSG signal divided by the GSSG/2 signal. Relative signal ratios in treated samples were normalized against untreated samples.

[3] = system: bile duct cancer cell lines; experiment: Cell viability of bile duct cancer cell lines; settings: treatment for 6 days
Procedure: (§1) Cell viability was examined by measuring the cellular ATP level using the CellTiter-Glo Luminescent Cell Viability Assay (Promega). To measure cell viability after siRNA-mediated knockdown, cell lines were transfected with siRNAs (25 nM) using Lipofectamine RNAiMAX. After 48 hrs, cells were trypsinized and repeatedly transfected with siRNAs (25 nM) using Lipofectamine RNAiMAX. Cells were trypsinized after a further 48 hrs, counted, and reseeded at the specified density in 96-well plates. To measure cell viability after drug treatment, cells were trypsinized, counted, reseeded at the specified density in 96-well plates, and exposed to the indicated concentrations of drugs. Cell viability was measured using the CellTiter-Glo Luminescent Cell Viability Assay. Luminescence was measured using an Envision Multi-label plate reader (PerkinElmer).

[4] = system: GSH; experiment: Detection of GSH in cells (GSH/GSSG-Glo, GSH-Glo)
[5] = system: uterine cancer cell lines; experiment: Cell viability of uterine cancer cell lines; settings: treatment for 6 days
Procedure: as §1

[6] = system: SWI/SNF complexes (SMARCA2, SMARCA4, SMARCB1, PBRM1) deficient cancer cells; experiment: Cell viability of SWI/SNF complex-deficient cancer cell lines; settings: treatment for 6 days
Procedure: as §1

[7] = system: ovarian PDCs; experiment: Cell viability of ovarian patient-derived cancer cells; settings: 33 μM APR-246 or 100 μM BSO for 6 days
Procedure: Tumor samples and ascites were obtained from four ovarian cancer patients who underwent surgery or cell-free and concentrated ascites reinfusion therapy at the National Cancer Center Hospital or Kaname-cho Hospital (Tokyo, Japan) and were cultured in vitro. This protocol was approved by the Institutional Review Board of the National Cancer Center (Tokyo, Japan), and informed consent was obtained from the patients. To establish CCCO219 and CCC1216 PDCs, patient ascites (24 ml) were diluted in two volumes of PBS containing 2 mM EDTA, layered over 15 ml Ficoll-Paque PLUS (GE Healthcare), and centrifuged at 2200 rpm for 30 min. The interphase mononuclear layer was transferred to a fresh conical tube and washed twice with PBS containing 2 mM EDTA. […]
as §1, with “To measure cell viability after siRNA-mediated knockdown, cell lines were transfected with siRNAs (25 nM) using Lipofectamine RNAiMAX. After 48 hrs, cells were trypsinized and repeatedly transfected with siRNAs (25 nM) using Lipofectamine RNAiMAX.” left out

[8] = system: ARID1A-WT and ARID1A-KO HCT116 cells; experiment: Cell viability and colony formation assays; settings: cell viability 5 days, colony formation 10 days
Procedure: as §1
The effect of drug treatment on cancer cell survival was evaluated in a colony formation assay. Cells were trypsinized, counted, reseeded at the specified density in 12-well plates, exposed to the indicated concentrations of drugs for 10-14 days, and fixed for 10 min in 50% (v/v) methanol containing 0.01% (w/v) crystal violet. Images were taken on LAS-3000 Imaging System (Fujifilm) and colonies were counted using Multi Gauge software.

[9] = system: diffuse-type gastric cancer PDCs; experiment: Cell viability of diffuse-type gastric cancer PDCs; settings: treatment for 6 days
[10] = ARID1A-deficient versus ARID1A-proficient ovarian and other cancer cells

Q: How did the “expression of p53 and p21” value [1] turn out when COCC1(CO)C(=O)C2CCN1CC2 (centres unmarked) [APR-246] was run?
A: did not markedly affect expression of p53 or p21

Q: And the “ROS level in SWI/SNF complexes-deficient cancer cells” value ([2]; 40 μM APR-246, 24 hrs)?
A: increased in the ROS level

Q: And the “ROS levels in gastric cancer PDCs” value ([2]; 40 or 50 μM APR-246, 48 hrs)?
A: increased more markedly in ARID1A-deficient than in ARID1A-proficient PDCs

Q: And the “intracellular ROS level (H2O2)” value ([2]; ARID1A-KO versus ARID1A-WT HCT116 cells, 48 hrs)?
A: increased more in ARID1A-KO cells than in ARID1A-WT cells

Q: What about the “levels of ROS and apoptosis in ovarian PDCs” value ([2]; ARID1A-deficient PDCs, 40-50 μM, 24-48 hrs) of the same molecule?
A: increased the levels of ROS and apoptosis

Q: And the “ROS level in cancer cell lines” value [2, 10]?
A: increased ROS level

Q: And the “IC50 values in ARID1A-deficient versus ARID1A-proficient bile duct cancer cell lines” value [3]?
A: markedly lower in two ARID1A-deficient cell lines than in two ARID1A-proficient cell lines

Q: What about the “GSH level (GSH/GSSG) in SWI/SNF complexes-deficient cancer cells” value ([4]; 40 μM APR-246, 24 hrs) of the same molecule?
A: decreased in the GSH level

Q: And the “GSH levels (GSH/GSSG) in gastric cancer PDCs” value ([4]; 40 or 50 μM APR-246, 1.25 μM erastin, 24 hrs)?
A: markedly decreased GSH levels in ARID1A-deficient PDCs and not in ARID1A-proficient PDCs

Q: And the “GSH level (ratio of reduced GSH to GSSG)” value ([4]; ARID1A-KO HCT116 cells, but not ARID1A-WT cells, 24 hrs)?
A: dose-dependently decreased the GSH level

Q: And the “GSH levels in ovarian PDCs” value ([4]; ARID1A-deficient PDCs, 50 μM, 24 hrs)?
A: decreased the GSH levels

Q: And the “GSH level in cancer cell lines” value [4, 10]?
A: decreased GSH level

Q: And the “IC50 values in ARID1A-deficient versus ARID1A-proficient uterine cancer cell lines” value [5]?
A: markedly lower in three ARID1A-deficient cell lines than in two ARID1A-proficient cell lines

Q: And the “IC50 values in SWI/SNF complexes deficient versus wild-type cell lines” value [6]?
A: markedly lower in these SWI/SNF complexes deficient cell lines than in wild-type cell lines

Q: And the “sensitivity of ARID1A-deficient versus ARID1A-positive PDCs” value [7]?
A: more sensitive

Q: What about the “growth / survival of ARID1A-KO versus ARID1A-WT cells” value [8] of the same molecule?
A: markedly decreased the survival of ARID1A-KO cells, but not ARID1A-WT cells

Q: And the “IC50 values in ARID1A-deficient versus ARID1A-proficient PDCs” value [9]?
A: markedly lower in ARID1A-deficient PDCs than in ARID1A-proficient PDCs
